{"source": "patent US20180318291A1", "about": "“USE OF AMINOTHIAZOLE MYD88 SPECIFIC INHIBITOR TJM2010-5” (WUHAN INNAMUNE PHARMACEUTICAL INC. LTD., priority 2015, published 2018)", "key": {"[1]": {"system": "C57bl/6 mice", "assay": "BLM (bleomycin) pulmonary inflammation model", "type": "in vivo", "experimental": "1. Animal grouping: C57bl/6(B6) NaCl (200 μl nasal drip) group, C57bl/6 (B6) BLM group and TJM2010-5BLM group (provide intraperitoneal injection of TJM2010-5 dissolved in 0.5% CMC of 150 mg/kg/d on day 0-3, 5, 7, 9, 11, 13, 15).\n2. Construct pulmonary inflammation model with BLM (bleomycin) nasal drips: conduct airway anesthesia with 40 μl of ketaminexylazine, and administrate BLM sulfate by nasal dripping (300 μg or 15 mg/kg).\n3. Collect cell and cytokines with bronchoalveolar lavage fluid (BAL): Cut open the trachea and insert the plastic sleeve; then lavage with 0.3 ml of PBS at 37° C., and withdraw the lavage fluid (the withdrawn fluid is more than 95%), and repeat the process for 10 times. The lavage fluid consists of two parts: one part is used for detection of cytokins (600 g, conduct centrifugation for 10 min, collect and store the supernatant at −80° C. for detection); the other part is used for cell counting (0.4 ml, including substratum, suspension), count at 4° C.\n4. Detect cells and factors in tissue with pulmonary homogenate: After BAL, take and grind the whole lung, and conduct centrifugation to take supernatant, then, store it at −80 C° for detection of MPO.\n5. Conduct activity detection of pulmonary MPO: Completely lavage the lung with saline passing through right heart, and take pulmonary tissue homogenate, then conduct centrifugation to take supernatant. After that, suspend and precipitate it with 1 ml of PBS (including 0.5% of HTAB, 5 mM of EDTA). Conduct centrifugation, add 50 μl of supernatant into tube (200 μl of PBS-HTAB-EDTA, 2 ml of HBSS, 100 μl of o-dianisidine dihydrochloride (1.25 mg/ml), 100 μl of H2O2 0.05%), and put it into vortex water tank at 37° C. for 15 min. Then, stop the reaction with 100 μl of NaN3 1%, and detect the MPO absorption value with 460 nm.\n6. Conduct cell counting: Dye with MG-1L for 4 min, and dye with 95% of GS-500 for 8 min. Then, make smear to count cells.\n7. Conduct factor detection: detect the level of IL-6 with ELISA."}, "[2]": {"system": "inflammatory factors (IL-1β, TNF-α, IL-6) in graft", "assay": "real time quantitative PCR of inflammatory factors in graft", "type": "in vivo, mice", "excerpt": "1. Extract the total RNA from the receptor receiving antigen (homogenic, allogenic) stimulation by the TRIzol method;\n2. Reversely transcribe them to cDNA by the two-step method of RT-PCR;\n3. Make the standard curve to compare the measured relative level of IL-1β, TNF-α, IL-6."}, "[3]": {"system": "GVHD mice", "assay": "GVHD model in irradiated BALB/c mice", "type": "in vivo", "experimental": "Construction of GVHD model: Apply myeloablativetotal body irradiation (TBI, 710cGy) (HI-ENERGY PRIMV S-M X-ray source) on female BALB/c (H-2d) mice, and inject the bone marrow cell of […] of C57BL/6(B6, H-2^b) mice into it within 2 hours, and inject the B6spleen cells of […] into some of these female BALB/c (H-2d) mice at some time.\nGroups: GVHD mice are divided into 4 groups, where the first group is control group, and the 8 mice in the group are provided with no post operation treatment; the second group is provided with intragastric administration of TJM2010-5 of 50 mg/kg/day since the day of irradiation; the third group is the MR1 group, in which the 8 mice are provided with the treatment of MR1 of 10 mg/kg/time on day 0, 1, 2, 3, 7 and 14 after irradiation; the forth group is the combination treatment group (TJM2010-5+MR1), in which the 8 mice are treated with TJM2010-5 and MR1 by the method mentioned above.\nIn case TJM2010-5 is combined with MR1, it can reverse 100% of GVHD. However, other aminothiazole compounds have no or little such curative effect."}, "[4]": {"system": "NOD mice", "assay": "diabetes mellitus type I model in NOD mice", "type": "in vivo", "details": "150 mg/kg/d intraperitoneal, observed 30 weeks, FIG. 4", "experimental": "1. Experimental groups: MyD88KO NOD mice, MyD88KO/+NOD mice, NOD mice TJM2010-5 treatment group.\n2. Treatment group: Provide intraperitoneal injection of TJM2010-5 dissolved in 0.5% CMC of 150 mg/kg/d on the day before antigen injection, and on day 0 to day 3, and day 5, 7, 9, 11, 13 and 15 day after injection.\n3. Provide intraperitoneal injection of mycobacterium antigen to mice in each group and monitor the concentration constantly.\n4. Feed in clean level and observe for 30 weeks, and take the tail venous blood to test the non-fasting blood-glucose. The standard for diabetes modeling is obtaining the blood-glucose no less than 22 mmol/L for 2 times successively."}, "[5]": {"system": "RAW264.7 cell", "assay": "CD80 expression on RAW264.7 (macrophage) cells by flow cytometry", "type": "cell-based", "experimental": "TJM2010-5 can inhibit the up-regulation of RAW264.7 cell on costimulatory molecules CD80 caused by TLR stimulant (LPS, CpG), which means that TJM2010-5 can effectively block the TLR signal pathway, thus to inhibit the cells' immune reaction.\nRaw264.7: Place the cells into a 48-pore plate, the number of cells is 9×10^5/pore, and 1 ml of medium system is added to each pore. Firstly, add TJM2010-5 of different concentration gradients to pre-incubate the cells for 2 h, then, add the CPG to get the final concentration of 40 ug/ml, and then incubate them in CO2 incubator at 37° C. for one night (12 h). Add the flow antibody FITC to label anti-CD80, CD86, and conduct detection with machine;\nAdd the flow antibody FITC to label anti-CD80, CD86, and conduct detection with machine."}}, "data": [{"molecule": "O=C(CCN1CCN(Cc2ccccc2)CC1)Nc1nc(-c2ccccc2)cs1", "note": "[TJM2010-5, 3-(4-benzylpiperazin-1-yl)-N-(4-phenylthiazol-2-yl) propanamide]", "values": [{"measurement": "recruitment of bronchialveolar neutrophile granulocyte", "setting": "[1]; 150 mg/kg/d intraperitoneal, FIG. 10b", "result": "reduces significantly"}, {"measurement": "level of IL-6 in lung tissue", "setting": "[1]; at 24 h, FIG. 11b", "result": "reduces"}, {"measurement": "total cell numbers in bronchial alveolar vs WT mice", "setting": "[1]; day 1, 7, 11, FIG. 10a", "result": "statistical differences"}, {"measurement": "MPO factor in lung tissue", "setting": "[1]; detection on day 7, FIG. 11a", "result": "reduced"}, {"measurement": "level of inflammatory factors (IL-1β, TNF-α, IL-6) in heart graft vs control group", "setting": "[2]; FIG. 9", "result": "significantly lower than that of control group"}, {"measurement": "level of IL-1β in graft vs CMC allogeneic transplantation group", "setting": "[2]; FIG. 9a", "result": "significantly lower than those in CMC allogeneic transplantation group"}, {"measurement": "level of IL-6 in graft vs CMC allogeneic transplantation group", "setting": "[2]; FIG. 9c", "result": "significantly lower than those in CMC allogeneic transplantation group"}, {"measurement": "weight vs control group", "setting": "[3]; 50 mg/kg/day intragastric since day of irradiation, FIG. 2a-A", "result": "higher than that of control group"}, {"measurement": "GVHD level vs control group", "setting": "[3]; 50 mg/kg/day intragastric, FIG. 2a-B", "result": "significantly lower than that of control group"}, {"measurement": "survival rate vs control group", "setting": "[3]; 50 mg/kg/day intragastric, FIG. 2a-C", "result": "significantly higher than that of control group"}, {"measurement": "general performances of mice", "setting": "[3]; FIG. 2c", "result": "close to normal mice"}, {"measurement": "GVHD reversed", "setting": "[3]; TJM2010-5 alone or combined with MR1", "result": 70, "unit": "%"}, {"measurement": "survival rates of the mice after 60 days", "setting": "[3]; each TJM2010 compound combined with MR1, 50 mg/kg/day intragastric, 8 mice per group", "result": 100, "unit": "%"}, {"measurement": "incidence rate of diabetes mellitus type I", "setting": "[4]", "result": "equivalent to that of MyD88KO homozygote group"}, {"measurement": "up-regulation of costimulatory molecule CD80 caused by TLR stimulant (LPS, CpG)", "setting": "[5]; RAW264.7 cell", "result": "inhibit"}, {"measurement": "expression of CD80 on macrophage surface", "setting": "[5]; Raw264.7, 2 h pre-incubation, CPG 40 ug/ml, 12 h, FIG. 3d", "result": "concentration-dependent inhibition"}]}]}
